From patent US10888574B2, “Method for suppressing obesity, method for treating obesity, and method for promoting gene expression” (Kinjirushi Co., Ltd., priority 2017, dated 2021)

Assays:
brown adipocytes = test: Quantitative determination of lipid droplets by Oil Red O staining in brown adipocytes; type: cell-based, rat; conditions: for Quantity of lipid droplets produced, Average: relative absorbance at 540 nm, control = 100, n=3; for Quantity of lipid droplets produced compared with medium without the substance (in words): rat primary brown adipocytes, FIG. 2
Experimental: (§1) In each example, as described below, brown adipocytes were cultured in a test medium to which each of various test substances has been added, and then quantitative determination of expression level of UCP1 gene and quantitative determination of lipid droplets by Oil Red 0 staining were performed.
(§2) Noradrenaline, isovitexin, and isosaponarin were each added to the maintenance medium. The final concentration in each media was set to 1 μmol/L for noradrenaline; 1 mmol/L, 100 μmol/L, and 10 μmol/L for isovitexin; and 1 mmol/L, 100 μmol/L, and 10 μmol/L for isosaponarin.
(§3) The brown adipocytes used in the test were those contained in the rat-derived primary brown adipocyte culture kit (manufactured by Cosmo Bio Co., Ltd., code number: BAT02). Using the above-described growth medium, the brown adipocytes were inoculated in the respective wells of a 24-well plate at a density of 3×10^4 cells/well. The brown adipocytes were cultured at 37° C. with 5% CO2 for 3 days in a CO2 incubator (multi-gas incubator, manufactured by Panasonic Healthcare Holdings Co., Ltd., product number: MCO-19MUVH). Next, the medium in each well was replaced with the differentiation-inducing medium, and culture was performed for 2 days in the CO2 incubator (5% CO2, 37° C.). Then, the medium in each well was replaced with the above-described maintenance medium, and culture was performed for 2 days in the CO2 incubator (5% CO2, 37° C.). Further, the medium in each well was replaced with the above-described maintenance medium again, and the brown adipocytes were cultured for 1 day in the CO2 incubator (5% CO2, 37° C.). Subsequently, analysis of gene expression and evaluation by Oil Red 0 staining were performed as below.
Lipid droplets in the cell cultured as described in the above item (2) were quantitatively determined through the steps below using Lipid Assay Kit (manufactured by Cosmo Bio Co., Ltd., code number: AK09F).
Step 2-1. Fixative solution was prepared by mixing the following ingredients together: • 37% formaldehyde solution (formalin stock solution): 100 mL, • purified water: 900 mL, • sodium dihydrogen phosphate monohydrate (NaH2PO4·H2O): 4 g, and • disodium hydrogen phosphate, anhydrous (Na2HPO4): 6.5 g.
Step 2-2. The culture solution was removed from the well plate subjected to the culture operation in the above “(2) Culture of brown adipocytes”. Then, each well was washed once with 500 μL per well of PBS.
Step 2-3. 500 μL per well of the fixative solution prepared in Step 2-1 was added to each well, and the well plate was left at rest overnight at room temperature.
Step 2-4. After the immobilization, washing of each well with 500 μL per well of purified water was performed.
Step 2-5. Undiluted Oil Red 0 solution in the kit and purified water were mixed together at a ratio of 6:4 (volume ratio) to obtain a mixed solution, and the mixed solution was left at rest at room temperature for 10 to 15 minutes. Then, the mixed solution was filtered through a membrane filter having pores with a pore diameter of 0.5 to 1.0 μm. The filtrate was used as Oil Red 0 solution.
Step 2-6. 500 μL of the above-described Oil Red 0 solution was dispensed into each well, and the well plate was left at rest at room temperature for 15 minutes.
Step 2-7. After that, the Oil Red 0 solution was removed from the well, and each well was washed with purified water three times or more. Such washing was performed thoroughly until the used purified water becomes clear.
Step 2-8. 500 μL of solvent for extraction in the kit was added into the dried well, and pigments were eluted. 0.1 mL of the eluate with the pigments eluted therein was dispensed into each well of a 96-well plate, and absorbance at a wavelength of 540 nm was measured with a micro-plate reader (Infinite [registered trademark] M200 PRO, manufactured by TECAN). […]

UCP1 gene = test: Quantitative determination of expression level of UCP1 gene in brown adipocytes (real-time PCR, GAPDH internal standard); type: cell-based; conditions: rat primary brown adipocytes; for Relative value of UCP1 gene expression, Average: control = 1.00, n=3; for UCP1 gene expression as compared with the control (in words): FIG. 1
Experimental: as §1, §2, §3
RNAs were recovered from the brown adipocytes using 0.2 mL per well of TRI Reagent (manufactured by Molecular Research Center, Inc., catalog number: TR118). Using 500 ng of each sample RNA, cDNA synthesis was performed using a cDNA synthesis kit (product name: SuperScript [registered trademark] VILO™ cDNA Synthesis Kit, manufactured by Thermo Fisher Scientific Inc., catalog number: 11754050). Real-time PCR was performed using a real-time PCR kit (product name: LightCycler [registered trademark] Taqman [registered trademark] Master, manufactured by Roche Applied Science, catalog number: 4735536) and a real-time PCR device (product name: LigthCycler [registered trademark] 480 System II, manufactured by Roche Diagnostics). Analysis of UCP1 gene expression was performed using GAPDH as an internal standard.
Primers and probes used in the test were as follows: • UCP1 primer, • forward primer: […] (SEQ ID No. 1, synthesized by Sigma-Aldrich Co. LLC), • reverse primer: tggccttcaccttggatct (SEQ ID No. 2, synthesized by Sigma-Aldrich Co. LLC), • probe: Universal ProbeLibrary probe #130 (manufactured by Roche Life Science Co. Ltd.), • GAPDH primer, • forward primer: […] (SEQ ID No. 3, synthesized by Sigma-Aldrich Co. LLC), • reverse primer: […] (SEQ ID No. 4, synthesized by Sigma-Aldrich Co. LLC), and
probe: Universal ProbeLibrary probe #80 (manufactured by Roche Life Science Co. Ltd.).
The number of experiments performed was three. […] The significant difference is indicated as “<0.05” when the significance level of the t-test was 5%, and as “<0.01” when the significance level was 1%.

SMILES	Quantity of lipid droplets produced, Average (brown adipocytes; concentration 10 μmol/L) [%]	Quantity of lipid droplets produced, Average (brown adipocytes; concentration 100 μmol/L) [%]	Quantity of lipid droplets produced, Average (brown adipocytes; concentration 1 mmol/L) [%]	Quantity of lipid droplets produced compared with medium without the substance (in words) (brown adipocytes)	Relative value of UCP1 gene expression, Average (UCP1 gene; final concentration 10 μmol/L)	Relative value of UCP1 gene expression, Average (UCP1 gene; final concentration 100 μmol/L)	Relative value of UCP1 gene expression, Average (UCP1 gene; final concentration 1 mmol/L)	UCP1 gene expression as compared with the control (in words) (UCP1 gene)	Relative value of UCP1 gene expression, Average (UCP1 gene; final concentration 1 μmol/L)
O=c1cc(-c2ccc(OC3OC(CO)C(O)C(O)C3O)cc2)oc2cc(O)c(C3OC(CO)C(O)C(O)C3O)c(O)c12 (centres unmarked) [Isosaponarin]	104.0	97.7	98.9	quantity of lipid droplets produced was smaller	1.17	1.30	1.18	significant increase in UCP1 gene expression	
O=c1cc(-c2ccc(O)cc2)oc2cc(O)c([C@@H]3O[C@H](CO)[C@@H](O)[C@H](O)[C@H]3O)c(O)c12 [Isovitexin]	84.8	83.3	77.8	quantity of lipid droplets produced was smaller	1.30	1.30	1.45	significant increase in UCP1 gene expression	
NC[C@H](O)c1ccc(O)c(O)c1 [Noradrenaline, reference compound]									1.38
